This passage reports IC50 results from article PMC6974402 (Nature, 2019).

One assay has as its target T1, SAP1 (Anopheles gambiae, UniProt Q7Q3U7).
T1 sequence (Q7Q3U7 18-127): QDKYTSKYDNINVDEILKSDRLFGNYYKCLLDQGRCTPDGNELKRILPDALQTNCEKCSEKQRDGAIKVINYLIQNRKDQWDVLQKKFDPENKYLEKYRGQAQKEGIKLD
Briefly: 1-NPN fluorescence displacement. Format: binding.

In another assay the target is T2, SAP3 (Anopheles gambiae, UniProt Q6H8Z2).
T2 sequence (Q6H8Z2 18-126): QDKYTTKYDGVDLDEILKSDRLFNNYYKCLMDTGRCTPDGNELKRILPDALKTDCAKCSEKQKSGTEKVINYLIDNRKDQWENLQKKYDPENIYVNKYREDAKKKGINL
The experiment in a line: 1-NPN fluorescence displacement. Format: binding.

Turning to `CC1(C)[C@H](C(=O)O[C@H](C#N)c2cccc(Oc3ccccc3)c2)[C@@H]1C=C(Br)Br` [deltamethrin], the concentration for half-maximal inhibition (IC50) on SAP1 and on SAP3 was > 10 µM each time.

For `CC1(C)C(C=C(Cl)Cl)C1C(=O)OC(C#N)c1cccc(Oc2ccccc2)c1` (stereo not drawn) [α-cypermethrin], the half-maximal inhibitory concentration (IC50) on SAP1 came out at 9.02 µM.

In general, IC50 refers to the point on the concentration scale where inhibition reaches its midpoint. A lower IC50 goes with higher potency.
